# Measured values reported in patent US6638910B2, “Compositions and methods for controlling plant pests” (priority 1997, dated 2003).
# Like-named read-outs stand apart in the source and are kept apart here. Starred links: 1 amine or outer side, 2 acyl side, 3 side chain; linkers in the order of their positions; H or OH if unused. Positions of bridges follow the written chain, without caps; N, C: chain ends. Non-standard residues stand in square brackets, D forms with d. Residues, ends and D or L forms follow the SMILES beside them. X1 = CC(C)CCCCCCCCC[C@H](CC(=O)[*:1])O[*:2]
# Experiments:
# Rhizoctonia solani = assay: Greenhouse test, Sheath Blight on Rice; format: in vivo
# Phytophthora infestans = format: in vivo; conditions: Tomato
# Plasmopara viticola = assay: Greenhouse test, grape downy mildew; conditions: Chardonnay grape
# Uncinula necator = assay: Greenhouse test, Powdery Mildew on Grape; format: in vivo
# Pyricularia oryzae = format: in vivo; conditions: Rice
# Botrytis cinerea = assay: Greenhouse test, Gray Mold on Pepper; format: in vivo
# E. graminis = assay: Greenhouse test, Powdery Mildew on Wheat; format: in vivo, Erysiphe graminis f. sp. graminis
# [1] = tested on: pre-adult beet armyworms (Spodoptera exigua); assay: 96-well microplate insecticidal assay, score rating; format: in vivo; conditions: Table 16; score 1 (all dead or stunted) to 4 (no dead)
# Experimental: (§1) Bacillus samples were grown in a Bacillus culture media. […] One day old streaked cultures were used to inoculate 250 mL baffled shake flasks. Flasks were shaken at 200 rpm at 29° C. for 5 days. To assay insecticidal activity, 35 mL of culture broth were centrifuged at 5,200 rpm for 20 minutes and the supernatant used in microassay described below. Assays were performed in 96-well microplates. […] To assay insecticidal activity, an agar substrate was prepared for the wells of the microplate according to Marrone et al. (1985), J. Econ. Entomol. 78: 290-293. […] Deionized water was used as a negative control. Two replicates of test sample or control were used for each assay. 40 μL of supernatant sample or whole broth grown in medium 1, 2 or 3 were dispensed into each sample well. Plates were then placed in a fume hood to dry for approximately 2-3 hours until the agar solution was dried. […] The microplate was sealed with an airtight substance such as Mylar®, and each well ventilated with a pin press. The plates were incubated at 27° C. for up to 7 days. After incubation, wells were scored by noting neonate mortality or the degree of larval development. […] Scores were averaged among replicates within each sample. […] It contained the same ingredients as medium 3 without proflo cotton seed extract. All other procedures were the same as above. The test was repeated two or three times.
# [2] = tested on: pre-adult corn rootworms (Diabrotica undecimpunctata); assay: as above; format: in vivo; conditions: Table 16; score 1 (all dead or stunted) to 4 (no dead)
# Experimental: as §1
# [3] = tested on: N2 strain of the nematode Caenorhabditis elegans; assay: 96-well microplate nematicidal assay, score rating; format: in vivo; conditions: Table 16; score 1 (all dead or stunted) to 4 (no dead)
# [4] = tested on: fungi including Penicillium chrysogenum; conditions: Peypoux et al. (1978) Tetrahedron 34:1147-1152; cited from earlier work
# Saccharomyces cerevesiae = conditions: Beeson et al. (1979) J. Antibiotics 32(8):828-833; cited from earlier work
compound,measurement,setting,value
CCCCNC(=O)n1c(NC(=O)OC)nc2ccccc21 [Benomyl],"percent disease control, R. solani",Rhizoctonia solani; 40 ppm,77%
same,"percent disease control, R. solani",Rhizoctonia solani; 100 ppm,100%
COCC(=O)N(c1c(C)cccc1C)C(C)C(=O)OC (stereo not shown) [Metalaxyl],"percent disease control, P. infestans",Phytophthora infestans; 10 ppm,77%
same,"percent disease control, P. infestans",Phytophthora infestans; 30 ppm,100%
same,percent disease control,Plasmopara viticola; 1 ppm,80% control
same,percent disease control,Plasmopara viticola; 10 ppm,98.3% control
same,percent disease control,Plasmopara viticola; 30 ppm,100% control
CCCCC(C#N)(Cn1cncn1)c1ccc(Cl)cc1 (stereo not shown) [Myclobutanil],"percent disease control, U. necator",Uncinula necator; 10 ppm,100%
same,"percent disease control, U. necator",Uncinula necator; 30 ppm,100%
O=C(Nc1ccccc1)N(Cc1ccc(Cl)cc1)C1CCCC1 [Pencycuron],"percent disease control, P. oryzae",Pyricularia oryzae; 10 ppm,100%
same,"percent disease control, P. oryzae",Pyricularia oryzae; 50 ppm,100%
CCCC1COC(Cn2cncn2)(c2ccc(Cl)cc2Cl)O1 (stereo not shown) [Propiconazole],"percent disease control, B. cinerea",Botrytis cinerea; 5 ppm,57%
same,"percent disease control, B. cinerea",Botrytis cinerea; 10 ppm,87%
same,"percent disease control, E. graminis",E. graminis; 0.2 ppm,54%
same,"percent disease control, E. graminis",E. graminis; 0.5 ppm,100%
CC(C)CCCCCCCCC[C@@H]1CC(=O)N[C@@H](CCC(=O)O)C(=O)N[C@@H](CC(C)C)C(=O)N[C@H](CC(C)C)C(=O)N[C@@H](C(C)C)C(=O)N[C@@H](CC(=O)O)C(=O)N[C@H](CC(C)C)C(=O)N[C@@H](CC(C)C)C(=O)O1 [Surfactin] (EL[dL]VD[dL]L; linker N-C via X1),"Activity score, Beet armyworm",[1],4.0
same,"Activity score, Corn rootworm",[2],2.0
same,"Activity score, C. Elegans",[3],4.0
Iturin-C,activity against fungi,[4],inactive
bacillomycin L,LC50,Saccharomyces cerevesiae,30 µg/mL
iturin-A,LC50,Saccharomyces cerevesiae,30 µg/mL
mycosubtilin,LC50,Saccharomyces cerevesiae,10 µg/mL
